Inhibition data for two compounds are collected here from ChEMBL document CHEMBL5696442, “Discovery of type II inhibitors of TGFβ-activated kinase 1 (TAK1) and mitogen-activated protein kinase kinase kinase kinase 2 (MAP4K2)” (J Med Chem, 2015).

Each structure is given as a SMILES string. Active and inactive are the calls of the source. No cut-off for these calls is given here.

In experiment [1] the target is Mitogen-activated protein kinase 3 (Homo sapiens) (UniProt P27361). Kind of experiment: Inhibition of Erk1 Lys2 labeling site harbouring YIHSANVLHRDLKPSNLLINTTCDLK in human A-375 cells at 0.05 uM by KiNativ Profiling analysis relative to control. The experiment is classed as cell-based.
Sequence of Mitogen-activated protein kinase 3 (Homo sapiens) (P27361 whole entry): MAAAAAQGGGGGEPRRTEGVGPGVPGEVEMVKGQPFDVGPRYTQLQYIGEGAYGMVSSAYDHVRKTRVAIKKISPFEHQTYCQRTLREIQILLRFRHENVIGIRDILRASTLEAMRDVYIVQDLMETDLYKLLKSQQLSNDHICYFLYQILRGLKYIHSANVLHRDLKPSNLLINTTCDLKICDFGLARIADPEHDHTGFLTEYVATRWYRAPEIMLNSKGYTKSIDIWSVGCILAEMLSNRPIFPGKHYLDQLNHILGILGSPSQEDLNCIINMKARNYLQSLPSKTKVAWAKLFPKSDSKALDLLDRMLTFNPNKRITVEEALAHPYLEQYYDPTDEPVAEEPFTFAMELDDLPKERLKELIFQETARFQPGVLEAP
For experiment [2], the target named is Serine/threonine-protein kinase 4 (Homo sapiens) (UniProt Q13043). Put plainly: Inhibition of MST1 Lys2 labeling site harbouring DIKAGNILLNTEGHAK in human A-375 cells at 5 uM by KiNativ Profiling analysis relative to control.
Sequence of Serine/threonine-protein kinase 4 (Homo sapiens) (Q13043 whole entry, looked up): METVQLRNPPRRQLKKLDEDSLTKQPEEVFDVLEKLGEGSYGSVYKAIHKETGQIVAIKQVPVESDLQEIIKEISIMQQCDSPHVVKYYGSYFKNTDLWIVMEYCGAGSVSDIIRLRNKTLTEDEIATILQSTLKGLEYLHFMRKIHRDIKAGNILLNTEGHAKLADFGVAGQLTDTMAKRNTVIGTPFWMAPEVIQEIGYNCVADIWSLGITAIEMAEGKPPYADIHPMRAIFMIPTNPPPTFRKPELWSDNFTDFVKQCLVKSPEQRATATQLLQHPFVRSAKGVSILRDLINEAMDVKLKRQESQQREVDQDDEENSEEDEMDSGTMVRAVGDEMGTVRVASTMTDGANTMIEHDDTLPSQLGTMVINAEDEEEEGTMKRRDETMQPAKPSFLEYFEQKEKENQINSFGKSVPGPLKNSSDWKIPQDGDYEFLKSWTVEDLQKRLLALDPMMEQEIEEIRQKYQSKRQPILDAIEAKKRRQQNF
Experiment [3] has as its target T1, Serine/threonine-protein kinase LATS1 (Homo sapiens) (UniProt O95835).
T1 sequence (whole entry): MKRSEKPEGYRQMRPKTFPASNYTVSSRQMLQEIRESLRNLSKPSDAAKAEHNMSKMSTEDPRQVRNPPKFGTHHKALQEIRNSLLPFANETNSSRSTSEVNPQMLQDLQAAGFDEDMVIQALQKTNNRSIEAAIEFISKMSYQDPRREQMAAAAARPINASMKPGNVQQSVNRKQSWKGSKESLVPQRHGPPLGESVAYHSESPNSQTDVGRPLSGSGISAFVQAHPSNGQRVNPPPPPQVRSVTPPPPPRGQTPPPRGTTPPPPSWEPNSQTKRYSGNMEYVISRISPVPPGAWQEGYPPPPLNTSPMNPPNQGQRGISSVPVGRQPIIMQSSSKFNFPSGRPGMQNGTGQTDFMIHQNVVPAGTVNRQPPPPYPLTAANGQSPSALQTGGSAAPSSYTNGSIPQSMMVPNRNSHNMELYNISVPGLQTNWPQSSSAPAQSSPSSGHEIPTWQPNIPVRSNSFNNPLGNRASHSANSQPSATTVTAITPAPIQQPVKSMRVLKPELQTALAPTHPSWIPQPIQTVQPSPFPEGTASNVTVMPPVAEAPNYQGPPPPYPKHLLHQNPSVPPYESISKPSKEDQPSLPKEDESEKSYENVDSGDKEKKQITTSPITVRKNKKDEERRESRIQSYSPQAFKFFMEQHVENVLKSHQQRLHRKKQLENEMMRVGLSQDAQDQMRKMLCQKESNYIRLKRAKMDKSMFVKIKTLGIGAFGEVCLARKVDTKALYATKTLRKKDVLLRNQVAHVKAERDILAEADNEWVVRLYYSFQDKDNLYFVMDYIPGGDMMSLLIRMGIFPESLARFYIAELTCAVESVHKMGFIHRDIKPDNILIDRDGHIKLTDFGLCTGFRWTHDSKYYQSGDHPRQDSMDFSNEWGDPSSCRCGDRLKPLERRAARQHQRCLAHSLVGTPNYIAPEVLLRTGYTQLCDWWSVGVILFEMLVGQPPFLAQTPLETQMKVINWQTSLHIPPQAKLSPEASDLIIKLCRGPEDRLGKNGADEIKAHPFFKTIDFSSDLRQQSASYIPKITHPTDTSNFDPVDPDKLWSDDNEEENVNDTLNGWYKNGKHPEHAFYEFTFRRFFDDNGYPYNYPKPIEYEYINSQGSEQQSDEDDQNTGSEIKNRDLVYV
Put plainly: Inhibition of LATS1 (unknown origin) at 1 uM by Ambit Kinomescan binding assay relative to control.

The target in experiment [4] is Platelet-derived growth factor receptor alpha (Homo sapiens) (UniProt P16234). Put plainly: Inhibition of PDGFRA (unknown origin) at 10 uM by Ambit Kinomescan binding assay relative to control.
Sequence of Platelet-derived growth factor receptor alpha (Homo sapiens) (P16234 whole entry): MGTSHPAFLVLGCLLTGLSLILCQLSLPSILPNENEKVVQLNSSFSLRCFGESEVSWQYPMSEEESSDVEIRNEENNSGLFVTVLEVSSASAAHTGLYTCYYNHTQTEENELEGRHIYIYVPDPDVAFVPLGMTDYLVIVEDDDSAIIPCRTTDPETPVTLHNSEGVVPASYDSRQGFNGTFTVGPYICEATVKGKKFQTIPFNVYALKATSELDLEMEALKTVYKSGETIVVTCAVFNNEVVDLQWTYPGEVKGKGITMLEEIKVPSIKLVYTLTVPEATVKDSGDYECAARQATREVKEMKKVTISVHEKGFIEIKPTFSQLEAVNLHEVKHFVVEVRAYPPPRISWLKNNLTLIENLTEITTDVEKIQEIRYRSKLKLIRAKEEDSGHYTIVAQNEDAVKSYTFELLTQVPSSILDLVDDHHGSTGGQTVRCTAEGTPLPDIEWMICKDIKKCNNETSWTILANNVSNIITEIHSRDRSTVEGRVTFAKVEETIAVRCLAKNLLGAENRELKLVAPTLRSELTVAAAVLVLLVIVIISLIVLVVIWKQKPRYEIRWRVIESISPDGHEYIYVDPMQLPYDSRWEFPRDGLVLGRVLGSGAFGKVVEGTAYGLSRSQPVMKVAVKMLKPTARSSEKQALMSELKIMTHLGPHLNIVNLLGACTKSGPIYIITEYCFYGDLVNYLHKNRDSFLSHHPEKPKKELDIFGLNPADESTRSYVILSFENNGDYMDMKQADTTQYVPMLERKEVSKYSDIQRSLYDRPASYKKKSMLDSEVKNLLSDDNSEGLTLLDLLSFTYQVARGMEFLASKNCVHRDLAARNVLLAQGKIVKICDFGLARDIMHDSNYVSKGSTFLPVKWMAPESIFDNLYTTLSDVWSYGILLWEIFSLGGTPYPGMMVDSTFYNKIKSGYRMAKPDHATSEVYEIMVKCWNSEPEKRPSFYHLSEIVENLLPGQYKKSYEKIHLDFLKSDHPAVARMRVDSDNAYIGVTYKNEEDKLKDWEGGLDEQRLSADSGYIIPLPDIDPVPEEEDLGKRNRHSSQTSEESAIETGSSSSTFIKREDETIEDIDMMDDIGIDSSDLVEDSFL
Experiment [5] addresses T2, Aurora kinase A (Homo sapiens) (UniProt O14965).
T2 sequence (whole entry): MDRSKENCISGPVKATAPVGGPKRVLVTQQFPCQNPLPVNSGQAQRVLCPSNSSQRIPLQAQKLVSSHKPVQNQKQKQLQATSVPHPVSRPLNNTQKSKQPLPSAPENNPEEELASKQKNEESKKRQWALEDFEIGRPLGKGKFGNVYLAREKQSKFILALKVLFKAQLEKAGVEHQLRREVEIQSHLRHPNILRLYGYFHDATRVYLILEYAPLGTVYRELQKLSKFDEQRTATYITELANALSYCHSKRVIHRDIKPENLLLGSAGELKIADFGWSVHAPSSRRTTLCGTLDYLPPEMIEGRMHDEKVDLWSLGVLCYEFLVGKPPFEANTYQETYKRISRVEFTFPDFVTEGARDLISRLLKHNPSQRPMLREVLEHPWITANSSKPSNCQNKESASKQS
Put plainly: Inhibition of AurA K2 labeling site harbouring VIHRDIKPENLLLGSAGELK in human Huh-7 cells at 10 uM by KiNativ Profiling analysis relative to control. In kind it is cell-based.

Experiment [6] addresses c-Jun N-terminal kinase, JNK (Homo sapiens) (UniProt P45983+P53779+P45984). Kind of experiment: Inhibition of JNK1/2/3 K2 labeling site in human Huh-7 cells at 1 uM by KiNativ Profiling analysis relative to control. The experiment is classed as cell-based.
The target of experiment [7] is T3, Mitogen-activated protein kinase kinase kinase kinase 2 (Homo sapiens) (UniProt Q12851).
T3 sequence (whole entry): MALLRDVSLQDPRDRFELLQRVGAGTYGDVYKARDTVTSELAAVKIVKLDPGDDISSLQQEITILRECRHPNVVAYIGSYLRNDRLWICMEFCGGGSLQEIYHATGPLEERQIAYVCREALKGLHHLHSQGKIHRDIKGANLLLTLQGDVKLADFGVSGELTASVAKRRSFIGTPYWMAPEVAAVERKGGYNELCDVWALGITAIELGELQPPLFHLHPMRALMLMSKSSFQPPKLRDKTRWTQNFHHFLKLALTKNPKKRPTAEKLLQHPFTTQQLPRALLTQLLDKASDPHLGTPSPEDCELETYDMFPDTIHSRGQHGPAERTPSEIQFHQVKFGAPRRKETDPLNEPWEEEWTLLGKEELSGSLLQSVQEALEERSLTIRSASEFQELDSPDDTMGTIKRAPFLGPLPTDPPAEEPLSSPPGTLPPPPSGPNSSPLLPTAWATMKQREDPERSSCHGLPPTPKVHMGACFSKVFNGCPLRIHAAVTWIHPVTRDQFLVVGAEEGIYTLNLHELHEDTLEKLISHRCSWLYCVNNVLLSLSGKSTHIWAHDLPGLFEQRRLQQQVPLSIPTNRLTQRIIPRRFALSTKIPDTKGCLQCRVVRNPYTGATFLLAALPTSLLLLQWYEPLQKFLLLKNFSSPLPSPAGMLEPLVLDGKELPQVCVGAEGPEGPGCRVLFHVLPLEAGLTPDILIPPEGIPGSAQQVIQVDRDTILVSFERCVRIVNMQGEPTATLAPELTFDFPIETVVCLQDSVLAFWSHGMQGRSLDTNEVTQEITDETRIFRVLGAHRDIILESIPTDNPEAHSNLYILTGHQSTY
Put plainly: Inhibition of MAP4K2 (GCK) Lys2 labeling site in human A-375 cells at 0.05 uM by KiNativ Profiling analysis relative to control. The experiment is classed as cell-based.

In experiment [8] the target is Non-receptor tyrosine-protein kinase TYK2 (Homo sapiens) (UniProt P29597). Kind of experiment: Inhibition of TYK2 JH2 pseudokinase domain (unknown origin) at 10 uM by Ambit Kinomescan binding assay.
Sequence of Non-receptor tyrosine-protein kinase TYK2 (Homo sapiens) (P29597 whole entry, the tested form may be a part): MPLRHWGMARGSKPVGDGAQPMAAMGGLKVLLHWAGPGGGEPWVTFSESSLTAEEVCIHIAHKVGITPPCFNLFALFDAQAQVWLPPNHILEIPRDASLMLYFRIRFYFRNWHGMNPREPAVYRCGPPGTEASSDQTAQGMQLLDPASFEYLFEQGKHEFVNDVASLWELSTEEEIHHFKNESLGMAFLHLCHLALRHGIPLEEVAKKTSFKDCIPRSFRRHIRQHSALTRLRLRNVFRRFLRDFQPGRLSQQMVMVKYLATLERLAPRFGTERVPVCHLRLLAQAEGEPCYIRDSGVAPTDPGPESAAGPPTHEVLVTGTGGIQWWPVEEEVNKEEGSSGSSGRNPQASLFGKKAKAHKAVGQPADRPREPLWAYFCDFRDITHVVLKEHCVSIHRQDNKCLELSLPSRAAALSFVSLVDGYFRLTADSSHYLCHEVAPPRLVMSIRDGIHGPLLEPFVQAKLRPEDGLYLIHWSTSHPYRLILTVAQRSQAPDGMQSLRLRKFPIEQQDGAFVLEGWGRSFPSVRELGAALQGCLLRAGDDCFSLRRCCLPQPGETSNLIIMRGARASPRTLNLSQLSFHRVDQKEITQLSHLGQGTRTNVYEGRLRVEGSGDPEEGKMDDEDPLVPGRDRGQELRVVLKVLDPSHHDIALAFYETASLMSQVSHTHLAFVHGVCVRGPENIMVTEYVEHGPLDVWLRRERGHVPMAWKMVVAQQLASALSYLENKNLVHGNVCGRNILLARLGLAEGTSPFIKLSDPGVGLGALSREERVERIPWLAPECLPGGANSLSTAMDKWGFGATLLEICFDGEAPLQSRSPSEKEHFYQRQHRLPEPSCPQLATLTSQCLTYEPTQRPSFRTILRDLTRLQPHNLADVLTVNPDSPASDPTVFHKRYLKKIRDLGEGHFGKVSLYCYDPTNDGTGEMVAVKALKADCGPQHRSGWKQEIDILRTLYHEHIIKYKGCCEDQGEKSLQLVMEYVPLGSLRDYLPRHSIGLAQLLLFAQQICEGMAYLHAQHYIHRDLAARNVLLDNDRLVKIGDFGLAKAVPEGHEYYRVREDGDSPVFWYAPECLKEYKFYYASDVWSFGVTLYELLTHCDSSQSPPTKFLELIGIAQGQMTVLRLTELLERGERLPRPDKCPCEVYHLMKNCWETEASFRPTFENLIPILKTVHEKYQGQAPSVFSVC

The inhibition is the relative decrease from the control value, in per cent. Consider `CCN1CCN(Cc2ccc(NC(=O)c3ccc(C)c(/C=C/c4cnc5[nH]ccc5c4OC)c3)cc2C(F)(F)F)CC1`, for which the figures for the inhibition in experiment [1], in experiment [2] and in experiment [3] were -5.4%, 14.1% and 80%, respectively.
`CCN1CCN(Cc2ccc(NC(=O)c3ccc(C)c(Oc4ccnc5[nH]ccc45)c3)cc2C(F)(F)F)CC1`: the values for the inhibition in experiment [4], in experiment [6] and in experiment [7] were 0.6%, 29.4% and 95.1%, respectively. Also, the inhibition entry in experiment [5] and in experiment [8] was “inactive” in each case.
